Data on 4 compounds can be found in US20250009740A1, “METHODS AND COMPOSITIONS FOR TARGETING ALTERNATIVE METABOLISM ALONG WITH FLT3 INHIBITOR-MEDIATED ANTILEUKEMIC ACTIONS” (Ohio State Innovation Foundation, priority 2021, published 2025).

One data set relates to MOLM-13 luciferase cells. As to the kind of experiment: MOLM-13-Luc+ FLT3-ITD AML xenograft in NCG mice. Conditions: 10 mg/kg dinaciclib weekly i.p., 30 mg/kg gilteritinib daily oral gavage, or both; vehicle 24 days. In kind it is in vivo, mouse.
Data set [1] deals with MOLM-13 cells. As to the kind of experiment: Pairwise dose combination synergy, MTS cell viability, HSA analysis. In kind it is cell-based, human. As for the experimental part: (§1) For dinaciclib, cells were treated for 2 hours with the drug before it was washed off and all other drugs were incubated with cells for 48-96 hours. Cell viability was measured with MTS. HSA analysis was used to determine regions of synergy. […] MOLM-13 and MV4-11 cells were treated with vehicle, 50 nM or 100 nM brequinar in combination with vehicle, 4 nM or 8 nM gilteritinib for 96 hours before cells were fixed and permeabilized for intracellular BV421-Ki67 staining and flow cytometry analysis. […] Primary cells were treated with vehicle, single agents or drug combination before cell apoptosis was measured with Annexin V/PI staining. Results are shown as mean±SEM of 3 biological replicates. […] Bone marrow cells from 3 FLT3-ITD patients, 2 FLT3-WT patients and 2 healthy donors were seeded into Methocult at 50,000 cells per condition with vehicle, single agents or drug combinations. The numbers of colonies were quantified for 1st and 2nd platings after 14 days post seeding. Results are shown as means of 2 biological replicates. * p<0.05 in comparison with EPZ015666, dinaciclib or brequinar alone.
(§2) Next, it was determined whether pharmacologic inhibition of CDK9, DHODH or PRMT5, using commercially available inhibitors (brequinar for DHODH, dinaciclib for CDK1/2/5/9, and EPZ015666 for PRMT5) is synergistic with gilteritinib in AML cells.

In a further data set the test system is MV4-11 cells. The description is as above. In kind it is cell-based. The procedure: as §1, §2
The subject of data set [2] is shRNA-stable MOLM-13 cells. As to the kind of experiment: Annexin V/PI flow cytometry of shRNA-stable cells treated with gilteritinib. The format is cell-based, human. As to conditions: 8 nM gilteritinib, 120 hours. The procedure:
(A-D) Knockdown efficiency of selected targets by shRNA as detected by qPCR and Western blotting; GAPDH or β-actin serves as loading control. N=2. *p<0.05; **p<0.01; (E-H) Dose-response curves of shCDK9, shDHODH, shPRMT5 and shCDK7-stable MOLM-13 cells in response to 120-hour gilteritinib treatment. Cell viability was measured with MTS. Results are shown as mean±SEM of 4 technical replicates and 3-4 biological replicates. ***p-value<0.0001; ns=not significant. I) Knockdown of CDK9, PRMT5 or DHODH but not CDK7 with shRNA increases the frequency of apoptotic AML cell lines with gilteritinib. Parental, scrambled or gene-targeting shRNA-stable MOLM-13 cells were treated with 8 nM gileritinib for 120 hours and stained with Annexin V/PI for flow cytometry analysis. Data are shown as mean±SEM of % population from triplicates.
DHODH, CDK9 and PRMT5 genes were selected for validation, in light of their strong synergistic interactions with gilteritinib and availability of clinical grade inhibitors. MOLM-13 cells were transduced with shRNA targeting each of these genes and knockdown efficiencies were confirmed via qPCR and Western Blotting (FIG. 2A-D). Scrambled or gene-targeting shRNA transduced cells were treated with gilteritinib (2-25 nM dose range) for 120 hours followed by MTS analysis to quantify cell proliferation.
For orientation: In flow cytometry, cells or beads pass a laser one at a time.

Data set [3] concerns MOLM-13 cells. Description: Proliferation assay of FLT3 inhibitor with telaglenastat, HSA analysis. The format is cell-based, human. Conditions: MOLM-13, 48 hours. As for the experimental part:
Proliferation assay of a range of doses of midostaurin or gilteritinib with telaglenstat on MOLM-13 cells treated for 48 hours. Highest single agent (HSA) analysis was used to determine regions of synergy.
FLT3-ITD inhibition reduces glutaminolysis by blocking glutamine influx through SLC1A5, the primary glutamine transporter^15,16. SLC38A2 can serve as a redundant glutamine transporter to compensate the deficiency of SLC1A5^17.

[4] abbreviates: gilteritinib paired with dinaciclib or EPZ015666, dinaciclib 2 hours then washed off, others 48-96 hours.
Setting [5] is: gilteritinib paired with dinaciclib or EPZ015666.

Description for MOLM-13 luciferase cells: (A) NCG mice were engrafted with MOLM-13 cells expressing luciferase and treated with vehicle, 10 mg/kg dinaciclib weekly, 30 mg/kg gilteritinib daily, or dinaciclib/gilteritinib combination.
Animal Studies All animal studies were carried out under protocols approved by The Ohio State University Institutional Animal Care and Use Committee (IACUC). 1×10^5 MOLM-13 luciferase cells were injected via tail vein into male NOD-Prkdc^em26Cd52Il2rg^em26Cd22/NjuCrl (NCG) from the Charles River Laboratory. On day 4 post-engraftment, mice were randomized to treatment arms. Mice received the following drugs and doses: weekly intraperitoneal injections of 10 mg/kg dinaciclib (MedChemExpress HY-10492) in 20% cyclodextrin (CTD THPB-P) diluted just prior to injection, daily oral gavage of 30 mg/kg gilteritinib (MedChemExpress HY-1432) in 6% drug w/w gelucire 44/14 (Gattefosse, France) aliquoted and mixed with drug weekly, oral gavage of vehicle control (gelucire 44/14), or combination therapy at single-agent regimens.

Compound `CCc1nc(C(N)=O)c(Nc2ccc(N3CCC(N4CCN(C)CC4)CC3)c(OC)c2)nc1NC1CCOCC1` [gilteritinib] returned a mean survival time in the data set with MOLM-13 luciferase cells of 39 days. For the same compound, the “synergy range (drug concentration)” value with MOLM-13 cells [1] (setting [4]) was 2 to 10 nM. Also, in the data set on MV4-11 cells (setting [5]), the “maximum synergy (drug concentration)” value was in the range of 0.1 to 8 nM. Also, the “increase of necroptotic/apoptotic cells vs scrambled control” value in data set [2] (knockdown of CDK9) is given as 9 fold; in data set [2] (knockdown of DHODH) it was 5 fold; in data set [2] (knockdown of PRMT5), 2.6 fold.

As to `CCc1cnn2c(NCc3ccc[n+]([O-])c3)cc(N3CCCC[C@H]3CCO)nc12` [dinaciclib], the mean survival time in the data set with MOLM-13 luciferase cells was 27.5 days. Further, in the data set with MOLM-13 cells [1] (setting [4]), the “synergy range (drug concentration)” value was in the range of 0.0075 to 0.01 nM. In addition, in the data set with MV4-11 cells (setting [5]), the “maximum synergy (drug concentration)” value fell in the range of 0.0075 to 0.01 nM.

For `O=C(NC[C@H](O)CN1CCc2ccccc2C1)c1cc(NC2COC2)ncn1` [EPZ015666], the “synergy range (drug concentration)” value in the data set on MOLM-13 cells [1] (in combination with 2-10 nM gilteritinib) was 1000 to 100000 nM. For the same compound, in the data set on MV4-11 cells (in combination with 0.1-8 nM gilteritinib), the “maximum synergy (drug concentration)” value was 3000 to 100000 nM.

On to `O=C(Cc1cccc(OC(F)(F)F)c1)Nc1ccc(CCCCc2nnc(NC(=O)Cc3ccccn3)s2)nn1` [telaglenastat], for which, in the data set on MOLM-13 cells [3], the “cytotoxic effect in combination with gilteritinib” value is “synergistic cytotoxic effect” and the “cytotoxic effect in combination with midostaurin” value is “synergistic cytotoxic effect”.
